These results are taken from patent EP2106791A1, “Glutamine or glutamine-containing dipeptide in a specific dosage for the treatment of inflammation” (Biotempt B.V., priority 2008, dated 2009).

Assay [1] concerns mouse renal ischemia reperfusion. Nature of the assay: Mice renal failure test (mouse renal ischemia reperfusion), mortality. It counts as in vivo. The following applies: score = animals died - animals in group. The procedure: Dipeptides are tested and compared with PBS (control) in a double blind animal study for a dipeptide's relative ability to aid recovery in a mouse renal ischemia reperfusion or mouse renal failure test. Under inhalation anesthesia, the left kidney with its artery and vein is isolated and occluded for 25 minutes using a microvascular clamp. During surgery, animals are placed on a heating path to maintain body temperature at 37°C. Five minutes before placing the clamp, and 5 minutes before releasing the clamp, dipeptide, dissolved in 0.1 mL of sterile saline, is administered intravenously. After reperfusion of the left kidney the right kidney is removed. Kidney function is assessed by measuring blood urea nitrogen before clamping, and at 2, 24, and 72 hours after reperfusion, by determining mRNA levels for cytokine expression, and such.
In short, in this test, the mice are anesthetized, and one kidney from each mouse is removed. The other kidney is tied off for 25 minutes, and the ischemia levels in the kidney are allowed to increase. Both before and/or after tying off, GLN-containing dipeptide is administered to 8 to 10 different mice per group (dosages vary per group from for example 0.7, 3, 7, 30 and 70 mg dipeptide / kg body mass intravenously). The mortality of the mice is determined for each oligopeptide as well as for example the BUN or creatinine concentration at two hours, 24 hours and 72 hours. Two dipeptides AQ and LQ are for example tested in a dose-response manner in the mice renal failure test. Dipeptides are tested at dosages of 0.7, 3, 7, 30 and 70 mg/kg body weight given intravenously.

For the next assay, the system named is TNF-alpha. Description: Rat hemorrhagic shock study, liver mRNA by reverse transcription-polymerase chain reaction. The format is in vivo, Rats. The settings on record: AQ intravenously 0.7 to 70 mg/kg during resuscitation; liver samples 30 minutes after completion of resuscitation. As for the experimental part: (§1) Methods: Rats are randomly assigned to groups. Under isoflurane anesthesia, the femoral artery and vein are cannulated. Hemorrhagic shock is induced by withdrawing blood through the arterial cannula until the mean arterial pressure (MAP) is 25-30 mm Hg and maintained at the level for 30 minutes with further withdrawals. Resuscitation is carried out by giving 21 mL/kg Ringer's lactate (LR) with or without the administration of AQ (intravenously at ranges from 0.7 to 70 mg/kg) and returning the shed blood. Controls are normal (anesthesia only), sham (surgical preparation), and shock (preparation and shock). Rats (n = 80, 10 per group) are killed 30 minutes after completion of resuscitation. Liver samples are collected, and total RNA is isolated for reverse transcription-polymerase chain reaction analysis of mRNA (TNF-a). […] Increased expression of liver mRNA for TNF-alpha is seen after hemorrhagic shock and resuscitation.

Another assay deals with Hemorrhagic shock. Description: Rat hemorrhagic shock study, recovery of mean arterial pressure. It counts as in vivo, Rats. The following applies: AQ intravenously 0.7 to 70 mg/kg with Ringer's lactate during resuscitation; compared with the LR group. As for the experimental part: as §1

Residues, ends and D or L forms follow the SMILES beside them.

In the case of `C[C@H](N)C(=O)N[C@@H](CCC(N)=O)C(=O)O` [AQ, alanyl-glutamine] (H-Ala-Gln-OH), the “Mortality in mice renal failure experiment 24h” value in assay [1] (0.7 mg/kg intravenously) is listed as 0-9; in assay [1] (3.0 mg/kg intravenously), 0-10; in assay [1] (7.0 mg/kg intravenously) it was 0-10; in assay [1] (30.0 mg/kg intravenously) it was 0-8; in assay [1] (70.0 mg/kg intravenously), 0-9. Further, the “Mortality in mice renal failure experiment 72h” value is given as 2-9 in assay [1] (0.7 mg/kg intravenously); 1-9 in assay [1] (3.0 mg/kg intravenously); 0-9 in assay [1] (7.0 mg/kg intravenously); 1-10 in assay [1] (30.0 mg/kg intravenously); 1-9 in assay [1] (70.0 mg/kg intravenously). The “expression of liver mRNA for TNF-alpha” value in the assay with TNF-alpha is given as “reduces mRNA expression for TNF-alpha”. The MAP recovery entry with Hemorrhagic shock is on record as “recovers more quickly”.
As for `CC(C)C[C@H](N)C(=O)N[C@@H](CCC(N)=O)C(=O)O` [LQ, leucyl-glutamine] (H-Leu-Gln-OH), the “Mortality in mice renal failure experiment 24h” value in assay [1] (0.7 mg/kg intravenously) is given as 0-9; in assay [1] (3.0 mg/kg intravenously), 0-10; in assay [1] (7.0 mg/kg intravenously) it was 1-10; in assay [1] (30.0 mg/kg intravenously), 0-10; in assay [1] (70.0 mg/kg intravenously) it was 0-8. Besides, the “Mortality in mice renal failure experiment 72h” value in assay [1] (0.7 mg/kg intravenously) is on record as 2-9; in assay [1] (3.0 mg/kg intravenously) it was 1-9; in assay [1] (7.0 mg/kg intravenously), 1-10; in assay [1] (30.0 mg/kg intravenously), 0-9; in assay [1] (70.0 mg/kg intravenously) it was 3-9.
